# T1: LBPA-loaded EPCR (Mus musculus, UniProt Q64695, C242S)
# T1 construct: endogenous in cells; host or cells: mouse CD115+ spleen monocytes; murine microvascular endothelial cells
# T1 sequence (Q64695 18-242 C242S): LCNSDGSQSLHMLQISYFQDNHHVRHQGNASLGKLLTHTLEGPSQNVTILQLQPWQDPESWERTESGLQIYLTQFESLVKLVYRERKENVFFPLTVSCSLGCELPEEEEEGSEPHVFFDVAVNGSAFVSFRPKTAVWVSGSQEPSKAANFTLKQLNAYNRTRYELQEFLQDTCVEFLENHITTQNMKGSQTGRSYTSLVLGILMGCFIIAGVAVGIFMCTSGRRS
# B1: EPCR-LBPA: purified soluble EPCR loaded with LBPA by lipid exchange (protein, UniProt Q9UNN8 18-210, looked up)
# extracellular domain: SQDASDGLQRLHMLQISYFRDPYHVWYQGNASLGGHLTHVLEGPDTNTTIIQLQPLQEPESWARTQSGLQSYLLQFHGLVRLVHQERTLAFPLTIRCFLGCELPPEGSRAHVFFEVAVNGSSFVSFRPERALWQADTQVTSGVVTFTLQQLNAYNRTRYELREFLEDTCVQYVQKHISAENTKGSQTSRSYTS
# modifications: extracellular domain loaded with LBPA lipid
# notes: purified soluble EPCR loaded with LBPA by lipid exchange
# How the values were obtained:
# [1] = system: EPCR^C/S monocytes; assay: Lipid supplementation and aPL signalling in EPCR^C/S monocytes; format: cell-based, mouse
# Excerpt: (§1) (A) Effect of aPL HL5B, aPL HL7G, and αEPCR antibodies on EPCR-dependent aPC generation on murine microvascular endothelial cells. (B) Effect of anti-mouse EPCR antibodies 1682 and 1650 on Tnfα mRNA induction by aPL HL5B and HL7G; mean±SD, n=6. * p<0.0001; one-way ANOVA, Dunnett multiple-comparison. (C) Effect of αEPCR on aPL HL5B and HL7G internalization in CD115+ splenocytes. Bar=5 μm. (D) Flow cytometry detection of FXa and EPCR on CD115+ spleen monocytes isolated from indicated mouse strains. (E) Effect of pre-treatment with 10 μM LBPA for 10 min on surface binding of αEPCR 1682 and αLBPA 6C4 on indicated monocytes; mean±SD, n=6. * p<0.003; multiple t-tests. (F) Competition of αEPCR 1650 and 1682 with binding of FITC-labelled anti-LBPA antibody 6C4 to mouse CD115+ splenocytes. (G) Competition of αLBPA 6C4 with binding of αEPCR 1682 to mouse monocytes. (H) Effect of LBPA, cardiolipin (CL), and phosphatidylserine (PS) (10 μM) on aPL HLSB signalling in EPCR^C/S monocytes. Induction of TNF after 3 hours is shown; mean±SD, n=6. (I) LBPA loading of purified mouse or human sEPCR evidenced by faster mobility on native gels. (J) Surface plasmon resonance analysis of aPL HLSB binding to purified human sEPCR or sEPCR-LBPA. The affinity calculation was based on a monovalent binding model because no cooperative binding was evident.
# (A) TNFα mRNA induction after 2 hours by HLSB is prevented in Alix-deficient trophoblast cells; mean±SD, n=6. * p<0.0001; t-test following Shapiro-Wilk test for normal distribution. (B, C) Proximity ligation assays (PLA) for ASM and EPCR on scrambled control JARs or ALIX−/− cells after 10 minutes of stimulation with HLSB (B) or thrombin (C) with or without LBPA loading. Bar=25 μm. (D) aPL internalization in ALIX deficient JAR cells and signalling in EPCR^C/S monocytes (E) was restored by adding 10 μM LBPA (S,R) but not by other phospholipids. (F) Pregnancy loss was scored at day 15.5 p.c. after injection of aPL HLSB on days 8 and 12. * p<0.02; one-way ANOVA, Dunnett multiple-comparison test. […]
# [2] = system: ALIX^−/− trophoblast cells; assay: aPL HL5B binding to ALIX-deficient trophoblast (JAR) cells after adding phospholipids; format: cell-based, human; details: 10 μM lipid added
# Protocol: (§2) (A) TNFα mRNA induction after 2 hours by HLSB is prevented in Alix-deficient trophoblast cells; mean±SD, n=6. * p<0.0001; t-test following Shapiro-Wilk test for normal distribution. (B, C) Proximity ligation assays (PLA) for ASM and EPCR on scrambled control JARs or ALIX−/− cells after 10 minutes of stimulation with HLSB (B) or thrombin (C) with or without LBPA loading. Bar=25 μm. (D) aPL internalization in ALIX deficient JAR cells and signalling in EPCR^C/S monocytes (E) was restored by adding 10 μM LBPA (S,R) but not by other phospholipids. (F) Pregnancy loss was scored at day 15.5 p.c. after injection of aPL HLSB on days 8 and 12. * p<0.02; one-way ANOVA, Dunnett multiple-comparison test. (G) Schematic representation of aPL signalling leading to thrombosis or pregnancy complications.
# Human ALIX^−/− trophoblast cells and murine EPCR^C/S monocytes provided tools to compare the species conservation of lipid presentation by EPCR. Only addition of S/R 18:1 LBPA and R/R 18:1 LBPA, but not S/S 18:1 LBPA or semi-S/R LBPA restored aPL HL5B binding to ALIX^−/− trophoblast cells (FIG. 7D) or signaling in EPCR^C/S monocytes (FIG. 7E). Thus, human and mouse EPCR present LBPA with the same selectivity, providing an explanation for the remarkable species cross-reactivity of pathogenic aPL.
# [3] = system: EPCR^C/S pDC; assay: Mouse pDC and B cell co-culture with R848 and aPL HL5B, anti-cardiolipin titers; format: cell-based; details: co-cultures with EPCR^C/S pDC
# Protocol: (§3) (A) Gbp2 mRNA induction after 1 hour stimulation with HL5B, HL7G, or LPS (100 ng/ml) in EPCR^C/S or WT monocytes with or without addition of LBPA. (B) WT monocytes were stimulated for 1 hour with IgG isolated from MRL/lpr lupus-prone or control MRL mice in the presence of the indicated antibodies to EPCR. (C) Human monocyte-derived DC were co-cultured with B cells in the presence of TLR7/8 agonist R848 and aPL HL5B with the indicated antibodies to human EPCR. Anti-cardiolipin titers were determined after 10 days. (D-F) Co-cultures of isolated spleen plasmacytoid dendritic cells (pDC) and B cells from the indicated mouse strains were co-cultured with Tlr7 agonist R848 and aPL HL5B for 10 days, followed by determination of anti-cardiolipin titers. IFNR^−/−, type I interferon receptor deficient mice.
# Supporting this conclusion, anti-cardiolipin antibody production was absent when mouse pDC, but not B cells, were isolated from EPCR^C/S mice (FIG. 9D). Addition of LBPA or interferon a restored the expansion of anti-cardiolipin producing B cells in co-cultures with aPL signaling-deficient EPCR^C/S pDC (FIG. 9D). In contrast, cells deficient in LRP8, the receptor for β2GPI, produced anti-cardiolipin antibodies normally in response to co-stimulation of aPL and Tlr7 agonist (FIG. 9E).
# [4] = system: acidic sphingomyelinase (ASM); assay: ASM activity in CD115+ spleen monocytes stimulated with aPL HLSB; format: cell-based, mouse; details: EPCR^C/S monocytes, LBPA 10 μM
# Protocol: (A) WT CD115+ spleen monocyte induction of ASM activity after 15 minutes aPL HLSB stimulation with the indicated inhibitors. (B) LBPA (10 μM) loading of EPCR^C/S cells enabled ASM activation in CD115+ monocytes stimulated with HLSB.
# ASM requires LBPA for activity (33). […] Thrombin stimulation to induce ASM surface expression was sufficient to trigger ASM activation that was blocked by extracellular addition of αEPCR-LBPA 1682 (FIG. 6C). TfpiΔK1 cells expressed LBPA-loaded EPCR (FIG. 3D), but lack surface FXa to trigger thrombin generation. […] In turn, ASM modification of surface lipid modification is required for endosomal trafficking and signaling of EPCR-bound aPL.
# [5] = system: human trophoblast cells; assay: TNFα mRNA induction by HLSB in ALIX knock-down trophoblast cells; format: cell-based; details: extracellular LBPA supplemented
# Protocol: as §2
# The importance of this pathway in human trophoblast cells by knock-down of ALIX (FIG. 8A) was evaluated, which is required for normal lysosomal functioning. ALIX knock-down diminished LBPA cell surface presentation, but not EPCR expression (FIG. 8B) and abolished aPL-induced, but not TNFα-induced proinflammatory effects.
# [6] = biological target: T1, LBPA-loaded EPCR; assay: Flow cytometry surface staining of monocytes with αEPCR 1682 and αLBPA 6C4; format: binding; details: LBPA added to culture medium, 10 μM, 10 min
# Excerpt: as §1, with “evident. […]” for “evident.”
# [7] = system: EPCR^C/S monocytes; assay: Gbp2 mRNA induction by aPL in EPCR^C/S monocytes; format: cell-based, mouse; details: 1 hour stimulation with aPL
# Protocol: as §3
# Further, it was investigated whether the identified target for lipid-reactive aPL contributes to the development of autoimmunity. Upregulation of interferon responses in circulating immune cells are linked to the development of APS (38, 39). […] In addition, IgG isolated from MRL/lpr lupus erythematosus mice, but not MRL control mice induced interferon responses dependent on EPCR-LPBA in monocytes (FIG. 9B).
# [8] = system: acidic sphingomyelinase (ASM); assay: ASM activity in unstimulated cell lysates after addition of sEPCR-LBPA; format: biochemical
# Protocol: (A) aPL-mediated TF activation, PS exposure measured by annexin 5 staining, ROS production and TNFα induction as well as (B) aPL internalization in MM1 cells was blocked by sphingomyelinase inhibitor desipramine. Bar=5 μm. (C) aPL-induced ASM activity in MM1 cells is blocked by inhibitors of FXa, thrombin, and PAR1 cleavage. (D) Live cell imaging of surface ASM exposure in MM1 cells after 30 minutes of stimulation with Fab′2 aPL HLSB. Bar=5 μm. (E) ASM activity in unstimulated cell lysates after addition of sEPCR-LBPA (2.504) is blocked by αEPCR 1682. For all ASM activity assays: mean±SD, n=3. * p<0.0003; one-way ANOVA, Dunnett multiple-comparison test. […] (G, H) Thrombosis induction by dual reactive aPL HL7G in the indicated mouse strains or WT mice in presence of indicated αEPCR. (F-H) Quantification of thrombus size 3 hours after aPL injection; median, interquartile range, and range; n=6-11; * p <0.004; one-way ANOVA, Dunnett multiple-comparison test compared to αEPCR 1650. (I, J) Thrombosis induction by aPL HLSB (I) or IgG isolated from age-matched 16 weeks old lupus-prone MRL/lpr and MRL control mice (J) in the indicated mouse strains. Quantification of thrombus size 3 hours after aPL injection; median, interquartile range, and range; (I) n=6-10; * p=0.001; unpaired t-test. (J) n=5; * p=0.0025; two-way ANOVA, Sidak's multiple comparisons test.
# ASM requires LBPA for activity (33). […]
molecule,measurement,setting,value
S/R 18:1 LBPA,aPL signaling in EPCR^C/S monocytes after adding LBPA isomers,[1]; 10 μM,restored
same,aPL HL5B binding to ALIX^−/− trophoblast cells,[2],restored
interferon a,expansion of anti-cardiolipin producing B cells,[3],restored
lysobisphosphatidic acid [LBPA],ASM activation by aPL after extracellular addition of LBPA,[4],restored ASM activation
same,aPL pro-inflammatory signaling of EPCR^C/S cells after lipid supplementation,"[1]; 10 μM lipid, TNF induction after 3 hours",restored aPL pro-inflammatory signaling
same,expansion of anti-cardiolipin producing B cells,[3],restored
same,aPL signaling in ALIX knock-down trophoblast cells,[5],restored aPL signaling
same,cell surface αLBPA 6C4 and αEPCR 1682 staining of EPCR^C/S cells,[6],restored
same,interferon responses (GBP2) in EPCR^C/S monocytes,[7],restored interferon responses
B1,induction of ASM activity in cell lysates of unstimulated cells,[8],efficiently induced ASM activity

# From patent US20230043394A1, “METHODS FOR DETECTION OF PATHOGENIC ANTIPHOSPHOLIPID ANTIBODIES AND FOR IDENTIFICATION OF INHIBITORS” (UNIVERSITÄTSMEDIZIN DER JOHANNES GUTENBERG-UNIVERSITÄT MAINZ, priority 2019, published 2023)
